Experimental data published in patent publication US20080051418A1, “Arylalkanoic Acid Derivative” (priority 2004, published 2008).

Experiments:
PPARγ-RXRα heterodimer = target: T1, PPARγ-RXRα heterodimer (Homo sapiens, UniProt P37231); assay: PPARγ-RXRα heterodimer ligand activity (luciferase reporter); type: cell-based; conditions: PPARγ:RXRα:4ERPP/CHO-K1 cells, 18-24 hr, concentration showing 50% of the maximum induction rate
T1 construct: expressed in transfected cells; host or cells: CHO-K1
T1 sequence (P37231 1-505): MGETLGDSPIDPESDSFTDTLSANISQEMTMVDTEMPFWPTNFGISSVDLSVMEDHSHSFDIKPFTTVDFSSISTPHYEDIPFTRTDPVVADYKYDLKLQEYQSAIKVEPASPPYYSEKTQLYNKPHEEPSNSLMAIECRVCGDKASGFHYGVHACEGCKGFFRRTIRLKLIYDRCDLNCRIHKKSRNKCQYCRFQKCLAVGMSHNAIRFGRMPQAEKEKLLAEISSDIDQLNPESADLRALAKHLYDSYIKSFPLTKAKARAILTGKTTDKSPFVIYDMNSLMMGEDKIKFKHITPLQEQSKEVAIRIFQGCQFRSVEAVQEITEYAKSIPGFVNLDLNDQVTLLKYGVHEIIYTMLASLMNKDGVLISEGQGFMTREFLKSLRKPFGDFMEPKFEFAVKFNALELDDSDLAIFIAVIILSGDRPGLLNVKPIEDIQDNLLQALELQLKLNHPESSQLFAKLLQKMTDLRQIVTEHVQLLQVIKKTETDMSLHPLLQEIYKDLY
T1 sequence (P19793 1-462 partner): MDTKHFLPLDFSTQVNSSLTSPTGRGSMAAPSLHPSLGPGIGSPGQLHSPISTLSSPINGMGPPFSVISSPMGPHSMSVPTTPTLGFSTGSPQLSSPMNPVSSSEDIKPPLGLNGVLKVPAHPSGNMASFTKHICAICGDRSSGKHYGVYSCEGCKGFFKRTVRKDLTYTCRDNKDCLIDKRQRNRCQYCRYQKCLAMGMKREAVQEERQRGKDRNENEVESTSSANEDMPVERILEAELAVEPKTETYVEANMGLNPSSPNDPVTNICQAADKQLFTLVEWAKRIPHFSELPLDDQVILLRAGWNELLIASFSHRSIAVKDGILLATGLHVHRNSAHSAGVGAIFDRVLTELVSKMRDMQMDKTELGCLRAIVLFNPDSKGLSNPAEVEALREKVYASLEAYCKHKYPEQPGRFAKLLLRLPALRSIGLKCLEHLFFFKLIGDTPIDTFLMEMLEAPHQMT
Protocol: The PPARγ:RXRα:4ERPP/CHO-K1 cells described in WO03/099793 were cultured in a Ham F12 medium [manufactured by Life Technologies, Inc., US] containing 10% calf fetal serum [manufactured by Life Technologies, Inc., US], sown in a 96-well white plate [manufactured by Corning Coster Corporation, US] at 2×10^4 cells/well, and incubated overnight in a carbon dioxide gas incubator at 37° C.
Then, the medium was removed from the 96 well white plate, 80 μl of Ham F12 medium containing 0.1% fatty acid-free bovine serum albumin (BSA) and a test compound (20 μl) were added, and the cells were incubated for 18-24 hr in a carbon dioxide gas incubator at 37° C. The medium was removed, 40 μl of PicaGene 7.5 (manufactured by Wako Pure Chemical Industries, Ltd.) diluted 2-fold with HBSS (HANKS' BALANCED SALT SOLUTION) [manufactured by BIO WHITTAKER, US] was added. After stirring, the luciferase activity was determined using the 1420 ARVO Multilabel Counter [manufactured by PerkinElmer, US].
(§1) The induction rate was calculated from the luciferase activity of each test compound based on the luciferase activity of the test compound non-administration group as 1. The test compound concentration and the induction rate were analyzed by PRISM [manufactured by GraphPad Software, Inc., US] to calculate EC50 value (compound concentration showing 50% of the maximum value of induction rate) of the test compound.

PPARδ-RXRα heterodimer = target: T2, PPARδ-RXRα heterodimer (Homo sapiens, UniProt Q03181); assay: PPARδ-RXRα heterodimer ligand activity (luciferase reporter); type: cell-based; conditions: transformant of Reference Example 9a of WO03/099793, 36-48 hr, concentration showing 50% of the maximum induction rate
T2 construct: expressed in transfected cells
T2 sequence (Q03181 1-441): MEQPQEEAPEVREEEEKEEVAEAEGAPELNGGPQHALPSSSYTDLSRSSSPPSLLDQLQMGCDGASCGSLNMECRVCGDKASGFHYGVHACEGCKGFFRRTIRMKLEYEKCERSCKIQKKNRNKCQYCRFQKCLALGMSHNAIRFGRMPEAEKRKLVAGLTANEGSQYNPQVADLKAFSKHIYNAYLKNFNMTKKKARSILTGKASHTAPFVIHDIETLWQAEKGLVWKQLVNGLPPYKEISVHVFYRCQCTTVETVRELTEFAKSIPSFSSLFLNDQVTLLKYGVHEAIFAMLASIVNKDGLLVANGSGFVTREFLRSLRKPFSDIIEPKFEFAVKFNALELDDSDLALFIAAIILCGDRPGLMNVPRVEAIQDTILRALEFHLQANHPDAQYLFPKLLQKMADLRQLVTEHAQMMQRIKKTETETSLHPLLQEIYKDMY
T2 sequence (P19793 1-462 partner): T1 sequence (P19793 1-462 partner)
Protocol: The transformant described in Reference Example 9a of WO03/099793 was suspended in a DMEM medium [manufactured by Life technologies, Inc., US] containing 0.1% fatty acid-free bovine serum albumin (BSA) (manufactured by Wako Pure Chemical Industries, Ltd.), and inoculated to each well of a 96 well white plate [manufactured by Corning Coster Corporation, US] by 80 μl to 1×10^4 cells/well. Then, the test compound (20 μl) was added, and cultured under the conditions of 37° C., 5% CO2 for 36-48 hr. The medium was removed from the 96 well white plate, 40 μl of PicaGene LT 7.5 (manufactured by Wako Pure Chemical Industries, Ltd.) diluted 2-fold with HBSS (HANKS' BALANCED SALT SOLUTION) [manufactured by BIO WHITTAKER, US] was added and, after stirring, the luciferase activity was determined using the 1420 ARVO Multilabel Counter [manufactured by PerkinElmer, US].
as §1

Row | SMILES | EC50 (PPARγ-RXRα heterodimer) [nM] | EC50 (PPARδ-RXRα heterodimer) [nM] | melting point [°C]
1 | CC(C)Oc1ccc(CCCCOc2cc(CCC(=O)O)n(-c3ccccc3)n2)c(Oc2ncc(C(F)(F)F)cc2Cl)c1 [Example 156, 3-{3-[4-(2-{[3-chloro-5-(trifluoromethyl)pyridin-2-yl]oxy}-4-isopropoxyphenyl)butoxy]-1-phenyl-1H-pyrazol-5-yl}propanoic acid] | 0.99 | 3.4 | 75 to 77
2 | CCCOc1cc(Oc2ccc(C(F)(F)F)cn2)ccc1CCCOc1c(CC(=O)O)cccc1OC [Example 102, {2-[3-(2-propoxy-4-{[5-(trifluoromethyl)pyridin-2-yl]oxy}phenyl)propoxy]-3-methoxyphenyl}acetic acid] | – | 54 | –
3 | CC(C)Oc1ccc(CCCOc2cc(CCC(=O)O)n(C)n2)c(Oc2ncc(C(F)(F)F)cc2Cl)c1 [Example 139, 3-{3-[3-(2-{[3-chloro-5-(trifluoromethyl)pyridin-2-yl]oxy}-4-isopropoxyphenyl)propoxy]-1-methyl-1H-pyrazol-5-yl}propanoic acid] | 9 | 17 | 88 to 89
4 | CC(C)Cn1nc(OCCCc2ccc(OC(C)C)cc2Oc2ncc(C(F)(F)F)cc2Cl)cc1CCC(=O)O [Example 143, 3-{3-[3-(2-{[3-chloro-5-(trifluoromethyl)pyridin-2-yl]oxy}-4-isopropoxyphenyl)propoxy]-1-isobutyl-1H-pyrazol-5-yl}propanoic acid] | 1.4 | 11 | 71 to 73
5 | COc1cccc(CC(=O)O)c1OCCCc1cc(OC(C)C)nn1Cc1ccc(Cl)cc1C [Example 68, (2-{3-[1-(4-chloro-2-methylbenzyl)-3-isopropoxy-1H-pyrazol-5-yl]propoxy}-3-methoxyphenyl)acetic acid] | 6 | 74 | 108 to 109
6 | CC(C)Oc1ccc(CCCOc2nn(C)cc2CC(=O)O)c(Oc2ncc(C(F)(F)F)cc2Cl)c1 [Example 116, {3-[3-(2-{[3-chloro-5-(trifluoromethyl)pyridin-2-yl]oxy}-4-isopropoxyphenyl)propoxy]-1-methyl-1H-pyrazol-4-yl}acetic acid] | 1.6 | 9.3 | –
7 | COCCOc1ccc(CCCOc2cc(CCC(=O)O)n(-c3ccccc3)n2)c(Oc2ncc(C(F)(F)F)cc2Cl)c1 [Example 147, 3-(3-{3-[2-{[3-chloro-5-(trifluoromethyl)pyridin-2-yl]oxy}-4-(2-methoxyethoxy)phenyl]propoxy}-1-phenyl-1H-pyrazol-5-yl)propanoic acid] | 0.35 | 4.4 | 128 to 129
8 | CCn1cc(CC(=O)O)c(OCCCc2ccc(OC(C)C)cc2Oc2ncc(Cl)cc2Cl)n1 [Example 120, [3-(3-{2-[(3,5-dichloropyridin-2-yl)oxy]-4-isopropoxyphenyl}propoxy)-1-ethyl-1H-pyrazol-4-yl]acetic acid] | 3.3 | 23 | –
9 | CCCOc1ccc(CCCOc2nn(Cc3ccccc3)cc2CC(=O)O)c(Oc2ncc(C(F)(F)F)cc2Cl)c1 [Example 114, {3-[3-(2-{[3-chloro-5-(trifluoromethyl)pyridin-2-yl]oxy}-4-propoxyphenyl)propoxy]-1-benzyl-1H-pyrazol-4-yl}acetic acid] | – | 25 | –
10 | CC(C)Oc1ccc(CCCOc2ncccc2CC(=O)O)c(Oc2ncc(Cl)cc2Cl)c1 [Example 121, [2-(3-{2-[(3,5-dichloropyridin-2-yl)oxy]-4-isopropoxyphenyl}propoxy)pyridin-3-yl]acetic acid] | 3.3 | 7.6 | 84 to 85
11 | CC(C)Oc1ccc(CCCOc2cc(CCC(=O)O)n(-c3ccccc3)n2)c(Oc2ncc(Cl)cc2Cl)c1 [Example 138, 3-[3-(3-{2-[(3,5-dichloropyridin-2-yl)oxy]-4-isopropoxyphenyl}propoxy)-1-phenyl-1H-pyrazol-5-yl]propanoic acid] | 1.2 | 4 | –
12 | COc1cccc(CC(=O)O)c1OCCCc1ccc(OC(C)C)cc1Oc1ncc(Cl)cc1Cl [Example 119, [2-(3-{2-[(3,5-dichloropyridin-2-yl)oxy]-4-isopropoxyphenyl}propoxy)-3-methoxyphenyl]acetic acid] | – | 39 | 92 to 93
13 | COc1cccc(CC(=O)O)c1OCCCc1cc(OC(C)C)nn1Cc1ccc(Cl)cc1OC(C)C [Example 70, (2-{3-[1-(4-chloro-2-isopropoxybenzyl)-3-isopropoxy-1H-pyrazol-5-yl]propoxy}-3-methoxyphenyl)acetic acid] | – | 60 | –
14 | COc1cccc(CC(=O)O)c1OCCCc1ccc(OC(C)C)cc1Oc1ncc(C(F)(F)F)cc1Cl [Example 115, {2-[3-(2-{[3-chloro-5-(trifluoromethyl)pyridin-2-yl]oxy}-4-isopropoxyphenyl)propoxy]-3-methoxyphenyl}acetic acid] | – | 2.5 | –
15 | COc1cccc(CC(=O)O)c1OCCCc1ccc(Oc2ccc(C(F)(F)F)cn2)cc1OC(C)C [Example 101, {2-[3-(2-isopropoxy-4-{[5-(trifluoromethyl)pyridin-2-yl]oxy}phenyl)propoxy]-3-methoxyphenyl}acetic acid] | – | 44 | –
16 | CC(C)Oc1ccc(CCCOc2nn(Cc3ccccc3)cc2CC(=O)O)c(Oc2ncc(C(F)(F)F)cc2Cl)c1 [Example 118, {3-[3-(2-{[3-chloro-5-(trifluoromethyl)pyridin-2-yl]oxy}-4-isopropoxyphenyl)propoxy]-1-benzyl-1H-pyrazol-4-yl}acetic acid] | 0.75 | 9.2 | –
17 | CCCOc1ccc(CCCOc2nn(C)cc2CC(=O)O)c(Oc2ncc(C(F)(F)F)cc2Cl)c1 [Example 113, {3-[3-(2-{[3-chloro-5-(trifluoromethyl)pyridin-2-yl]oxy}-4-propoxyphenyl)propoxy]-1-methyl-1H-pyrazol-4-yl}acetic acid] | – | 44 | –
18 | CC(C)Oc1ccc(CCCOc2nn(C)cc2CC(=O)O)c(Oc2ncc(Cl)cc2Cl)c1 [Example 132, [3-(3-{2-[(3,5-dichloropyridin-2-yl)oxy]-4-isopropoxyphenyl}propoxy)-1-methyl-1H-pyrazol-4-yl]acetic acid] | 11 | 88 | –
